According to publication PMC9774750, “Phenolic Fingerprinting and Bioactivity Profiling of Extracts and Isolated Compounds from Gypothamnium pinifolium Phil” (Antioxidants, 2022):
Entries after “also recorded” stand apart in the source; their conditions may differ.

Tests used:
Radical DPPH inhibition = assay type: biochemical; settings: mean ± SD, n = 3
Procedure: The radical DPPH inhibition was performed by mixing thoroughly 150 µL of DPPH 400 μM with 50 µL of the sample or positive control, the 96-well microplate was kept protected from the light, and after half hour of reaction, the absorbance was recorded at 515 nm in a Synergy HTX microplate reader [13, 16]. All the measurements were performed in triplicate. The data are expressed as IC50 in µg of extract or standard per mL and reported as the mean ± SD. The determination of the IC50 was performed using linear regression. Methanol was employed as a negative control and BHT as a positive control. The percentage of DPPH radical inhibition was calculated according to the following equation: Percentage of radical inhibition (%)=(1−A−As/ADPPH)×100
A: is the absorbance of the mixture of extract and radical, As: is the absorbance of the methanol and extract, and ADDPH: is the absorbance of the radical work solution.

HBL-100 cells (breast) = experiment: Antiproliferative activity (SRB), HBL-100; assay type: cell-based, human; settings: means ± SEM, n = 3
Procedure: (§1) Stock solutions in DMSO of the samples were prepared to dissolve the plant extract at a concentration of 100 mg/mL and the pure compounds 1–2 at 40 mM. For the antiproliferative activity tests, human solid tumor cells (100 µL) were seeded onto 96-well plates at a density of 2500 (A549, HBL-100, HeLa, and SW1573) or 5000 (T-47D, and WiDr) cells/well.
(§2) On the next day, the samples were added to the cell cultures in triplicate at decimal dilutions in the range 250 to 2.5 µg/mL for the extracts and 100 to 0.001 µM for compounds 1–2. Control cells were exposed to an equivalent amount of DMSO (0.25% v/v, negative control). Cells were incubated for an additional 48 h, after which time they were precipitated with 25 μL of ice-cold TCA (50% w/v) and fixed for 60 min at 4 °C [20]. Following sulforhodamine B staining, the optical density (OD) of each well was measured at 530 nm using a BioTek Power Wave XS absorbance microplate reader. Values were corrected with the background OD of the wells containing the control. […] The cell lines used in this study were kindly provided by Prof. Godefridus J. Peters (VUmc, Amsterdam, The Netherlands).

WiDr cells (colon) = experiment: Antiproliferative activity (SRB), WiDr; assay type: cell-based, human; settings: 48 h, means ± SEM, n = 3
Procedure: as §1, §2

[1] = target: T1, butyrylcholinesterase (BChE) (Equus caballus, UniProt P81908); experiment: biochemical; settings: means ± SD, n = 3; read-out: BChE Inhibition IC50 (converted)
T1 construct: purchased Sigma-Aldrich Chem. Co. (St. Louis, MO, USA); host or cells: equine serum
Procedure: (§3) The systems Arium 126 61316-RO and Arium 611 UV unit (Sartorius, Goettingen, Germany) were employed to get the ultra-pure water. […] Formic acid, methanol, ethyl acetate, and n-hexane of HPLC grade were obtained from Merk® (Santiago, Chile).
(§4) The Ellman method was used for the determination of the inhibitory potential against AChE and BChE. The enzymes were dissolved in Tris-HCl buffer 50 mM at pH 8.0 at the final concentration of 0.26 U/mL, and samples were prepared at 2 mg/mL and dissolved in buffer. […] Finally, to start the reaction, we added 20 µL of the substrate (acetyl-thiocholine iodide for AChE inhibition or butyryl-thiocholine chloride for BChE inhibition assays), and the absorbance was recorded at 405 nm for half an hour at 37 °C. The analysis was performed in triplicate, and the results are expressed as IC50.

[2] = target: T2, acetylcholinesterase (AChE) (Electrophorus electricus, UniProt O42275); experiment: biochemical; settings: means ± SD, n = 3; read-out: AChE Inhibition IC50 (converted)
T2 construct: purchased Sigma-Aldrich Chem. Co. (St. Louis, MO, USA)
Procedure: as §3, §4

HeLa cells (cervix) = experiment: Antiproliferative activity (SRB), HeLa; assay type: cell-based; settings: 48 h; for TGI (total growth inhibition) against HeLa cells / GI50: SRB; for LC50 (50% lethal concentration): read-out: LC50 against HeLa cells; for GI50: means ± SEM, n = 3
Procedure: as §1, §2

intact rat aorta = experiment: Vascular reactivity, relaxation of PE pre-contracted aortic rings; design: species or system Sprague Dawley rats; settings: 10^−9–10^−4 M, pre-contracted with 10^−6 M PE, three experiments
Procedure: The investigation was conducted according to the local ethics research committee of Universidad de Antofagasta, which ratified the experimental procedures (CEIC #275/2020 and CEIC #366/2022) for the use of a normotensive animal model (n = 3–6). The characteristics of the animals were as follows: male Sprague Dawley rats, six to eight weeks old, weighing between 170 and 200 g. The animals were kept at room temperature (22–25 °C) with 45–51% of humidity with ad libitum free-choice access to tap water and food and were randomized.
All the animals were euthanized by cervical dislocation and immediately proceeded to dissection of the aorta. Then the vascular tissue was arranged in organ baths that were filled with Krebs-Ringer bicarbonate solution pH 7.4 and remained at 37 °C with a constant flux of gas (95% O2 and 5% CO2). Once the tissue was stabilized and the integrity of the vascular endothelium was evaluated, the aortic rings were pre-contracted with 10^−6 M phenylephrine (PE), and after ten minutes, increasing concentrations of G. pinifolium extract, 2-nor-1,2-secolycoserone or ent-labda-8,13-E-diene-15-ol were added in the organ bath.
The data acquired from vascular reactivity assays were expressed as average ± standard error of the mean (SEM). One-way analysis of variance (ANOVA) followed by the Dunnett test was employed for statistical data analysis. […]

SW1573 cells (lung) = experiment: Antiproliferative activity (SRB), SW1573; assay type: cell-based, human; settings: means ± SEM, n = 3
Procedure: as §1, §2

T-47D cells (breast) = experiment: Antiproliferative activity (SRB), T-47D; assay type: cell-based, human; settings: 48 h, means ± SEM, n = 3
Procedure: as §1, §2

A549 cells (lung) = experiment: Antiproliferative activity (SRB), A549; assay type: cell-based, human; settings: means ± SEM, n = 3
Procedure: as §1, §2

HeLa cells = experiment: Label-free continuous live-cell imaging, apoptosis kinetics (LCDA); assay type: cell-based, human; settings: 20 h exposure, 1 at 80 µM, 2 at 50 µM
Procedure: The imaging platform microscope CX-A (Nanolive SA, Lausanne, Switzerland) was used to get refractive indexes (RIs), creating a holotomographic 3D image of the cells. HeLa cells were employed at a density of 50,000 cells/well onto an IBIDI μ-Dish, 35 mm high (IBIDI, Gräfelfing, Munich, Germany) and treated with compounds 1 and 2 right before the acquisition of the images at a dose of 80 µM and 50 µM, respectively. Data obtained were transferred to FIJI (NIH, Bethesda, MD, USA) for image analysis. The LIVE Cell Death Assay (LCDA) software (Nanolive SA) was used for the analysis of the RIs and for obtaining apoptosis kinetics.

[3] = test system: A549, SW1573, HBL-100, T-47D, HeLa, WiDr; experiment: Antiproliferative activity (SRB), panel of six human solid tumor cell lines; assay type: cell-based; settings: 48 h, read-out: GI50 range over all cell lines
Procedure: as §1, §2

[4] = ABTS•+ scavenging capacity; assay type: biochemical; settings: mean ± SD, n = 3
Procedure: The ABTS^•+ radical scavenging assay was employed to determine the antioxidant activity of G. pinifolium conventional extracts; the radical solution was prepared 16 h before the measurements mixing 7 mM ABTS and 2.45 mM K2S2O8, and the solution was stored protected from the light at room temperature until the ABTS radical formation. For the assay, were mixed 250 µL of ABTS radical with an increasing concentration of sample or positive control (Trolox), and after half an hour, the absorbance was measured at 734 nm with a Synergy HTX microplate reader. The results are expressed as IC50 in µg of extract or Trolox per mL. The percentage of radical inhibition formula was employed for the ABTS inhibition calculation, then the IC50 was calculated through linear regression (concentration vs. inhibition percentage), and the data is reported as the mean ± SD.

MCF-7 = test system: MCF-7; design: method as in doi:10.1016/j.indcrop.2015.06.033; settings: 24 h of drug exposure; read-out: IC50 cell growth inhibition MCF-7; cited from earlier work

T1 sequence (P81908 whole entry): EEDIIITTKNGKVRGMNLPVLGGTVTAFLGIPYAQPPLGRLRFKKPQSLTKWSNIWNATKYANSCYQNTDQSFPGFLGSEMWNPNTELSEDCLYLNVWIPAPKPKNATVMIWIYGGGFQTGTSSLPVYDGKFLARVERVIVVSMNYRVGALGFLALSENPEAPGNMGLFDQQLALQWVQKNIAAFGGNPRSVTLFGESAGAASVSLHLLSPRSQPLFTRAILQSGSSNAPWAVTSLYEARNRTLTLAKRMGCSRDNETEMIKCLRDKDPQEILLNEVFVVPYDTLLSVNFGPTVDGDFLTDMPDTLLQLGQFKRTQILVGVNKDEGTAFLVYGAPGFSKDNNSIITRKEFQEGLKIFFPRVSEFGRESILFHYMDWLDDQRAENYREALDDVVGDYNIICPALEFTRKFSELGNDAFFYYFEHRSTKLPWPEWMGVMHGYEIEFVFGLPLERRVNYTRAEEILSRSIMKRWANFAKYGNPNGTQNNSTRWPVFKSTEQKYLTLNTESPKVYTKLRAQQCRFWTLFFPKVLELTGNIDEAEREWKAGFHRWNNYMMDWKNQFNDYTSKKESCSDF
T2 sequence (O42275 24-633): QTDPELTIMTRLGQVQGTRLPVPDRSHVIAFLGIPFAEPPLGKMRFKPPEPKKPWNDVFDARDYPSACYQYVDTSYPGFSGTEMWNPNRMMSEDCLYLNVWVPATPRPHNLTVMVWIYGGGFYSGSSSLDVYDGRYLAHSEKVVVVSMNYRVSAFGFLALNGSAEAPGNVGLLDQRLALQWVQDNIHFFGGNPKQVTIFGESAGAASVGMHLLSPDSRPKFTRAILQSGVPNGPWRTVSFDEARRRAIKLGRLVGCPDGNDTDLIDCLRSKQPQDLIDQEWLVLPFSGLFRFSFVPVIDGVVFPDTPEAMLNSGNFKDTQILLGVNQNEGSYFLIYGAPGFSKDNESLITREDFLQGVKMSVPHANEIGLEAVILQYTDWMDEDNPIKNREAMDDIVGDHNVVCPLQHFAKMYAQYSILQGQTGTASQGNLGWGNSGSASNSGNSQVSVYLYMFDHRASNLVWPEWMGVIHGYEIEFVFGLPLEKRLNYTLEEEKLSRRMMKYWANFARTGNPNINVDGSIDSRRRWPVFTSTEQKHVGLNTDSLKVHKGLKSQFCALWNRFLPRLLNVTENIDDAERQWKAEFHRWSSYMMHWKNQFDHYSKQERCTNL

Structure (SMILES) | GI50 (HBL-100 cells (breast); Homo sapiens, HBL-100, 48 h) | GI50 (WiDr cells (colon); Homo sapiens, WiDr) | IC50 [1] | IC50 [2] | TGI (total growth inhibition) against HeLa cells (HeLa cells (cervix)) | LC50 (50% lethal concentration) (HeLa cells (cervix); Homo sapiens, HeLa) | GI50 (HeLa cells (cervix); Homo sapiens, HeLa) | relaxation effect in aortic rings (intact rat aorta) | GI50 (SW1573 cells (lung); Homo sapiens, SW1573, 48 h) | GI50 (T-47D cells (breast); Homo sapiens, T47D) | GI50 (A549 cells (lung); Homo sapiens, A549, 48 h) | other results
Cc1cc(C(C)(C)C)c(O)c(C(C)(C)C)c1 [BHT] | – | – | – | – | – | – | – | – | – | – | – | DPPH IC50 (Radical DPPH inhibition): 25.09 ± 0.55 μg per mL
CC1=C(CC/C(C)=C/CO)[C@]2(C)CCCC(C)(C)C2CC1 (stereo partly drawn) [Compound 2, ent-labda-8,13-E-diene-15-ol] | 10 ± 1.3 µM | 9 ± 3.4 µM | 63.1 µM | 18.8 µM | 46 ± 0.3 µM | 69 ± 27 µM | 4.8 ± 0.3 µM | slight relaxation effect; also recorded: do not cause vascular relaxation; also recorded: no vascular relaxation | 5.4 ± 0.6 µM | 5.1 ± 0.3 µM | 4.5 ± 0.1 µM | apoptosis kinetics (onset of cell death) (HeLa cells): induce death in HeLa cells earlier than coumarin 1; GI50 [3]: 4.5 to 10 µM
N.N.[Cl][Pt][Cl] [Cisplatin, reference compound] | – | – | – | – | – | – | – | – | – | – | – | GI50 (HBL-100 cells (breast); 48 h): 1.9 ± 0.2 µM; GI50 (WiDr cells (colon)): 23 ± 4.3 µM; GI50 (HeLa cells (cervix)): 1.8 ± 0.5 µM; GI50 (SW1573 cells (lung); 48 h): 2.7 ± 0.4 µM; GI50 (T-47D cells (breast)): 17 ± 3.3 µM; GI50 (A549 cells (lung); 48 h): 4.9 ± 0.2 µM
Cc1c(C)c2c(c(C)c1O)CCC(C)(C(=O)O)O2 (racemic) [Trolox, (±)-6-Hydroxy-2,5,7,8-tetramethylchromane-2-carboxylic acid] | – | – | – | – | – | – | – | – | – | – | – | ABTS IC50 [4]: 2.33 ± 0.11 μg per mL
CC1=C(C(=O)CC(C)C)O[C@@H](CC(=O)c2c(C)cccc2O)[C@H]2[C@@H]1CC[C@@H]2C [Compound 1, 2-nor-1,2-secolycoserone] | 31 ± 0.3 µM | 36 ± 4.1 µM | 29.2 µM | 3.15 µM | 82 ± 4.5 µM | > 100 µM | 21 ± 4.5 µM | slight relaxation effect; also recorded: do not cause vascular relaxation | 25 ± 5.6 µM | 30 ± 0.1 µM | 23 ± 7.2 µM | IC50 (MCF-7): 15 µM
